{"source": "patent US20210130780A1", "about": "“METHODS OF GENERATING ENUCLEATED ERYTHROID CELLS USING MYO-INOSITOL” (Rubius Therapeutics, Inc., priority 2019, published 2021)", "system": "Human CD34+ hematopoietic stem cells (HSCs) / erythroid progenitor cell cultures", "experiment": "Effect of myo-inositol on erythroid cell growth and enucleation (three-stage culture, maturation phase)", "details": "third culture medium (maturation phase, 24 well plate) supplemented with an additional 1 g/L myo-inositol vs not supplemented control (basal IMDM 0.0072 g/L), FACS-based cell counting", "method": "The effect of myo-inositol on erythroid progenitor cell cultures was examined. Human CD34^+ hematopoietic stem cells (HSCs) were cultured in a three-stage process to generate enucleated erythroid cells. In the first stage, the CD34+ HSCs were expanded in a T-flask in a first culture medium containing IMDM supplemented recombinant human insulin, recombinant human transferrin, recombinant human SCF, recombinant IL-3, recombinant Flt-3 ligand, and recombinant human IL-3. Subsequently, cells were transduced with a lentiviral vector encoding phenylalanine ammonia lyase. After transduction, cells were cultured in a 50 L bioreactor culture vessel containing a second culture medium containing IMDM, supplemented with recombinant human erythropoietin, recombinant human SCF, recombinant human IL3, recombinant human insulin, dexamethasone, and recombinant human transferrin. For the third stage of the process (maturation phase), an aliquot of cells were seeded into 24 well plate containing a third culture medium containing IMDM supplemented with recombinant human EPO, recombinant human SCF, recombinant human insulin, recombinant transferrin, human AB serum, and human plasma. […] Periodic sampling and cell counting was performed during the third stage using a fluorescence-activated cell sorting-based cell counter."}
{"smiles": "O[C@H]1[C@H](O)[C@@H](O)[C@H](O)[C@@H](O)[C@H]1O", "note": "[myo-inositol]", "values": [{"measurement": "total cell density of erythroid cells", "setting": "FIG. 1", "value": "significantly increase"}, {"measurement": "enucleated erythroid cell density", "setting": "FIG. 2", "value": "significantly increase"}]}
